Tests used:
[1] = system: multiple anion (CFTR, calcium-activated chloride channels) and cation (K+, Na+) channels; assay: Short-circuit current in MDCK cells (ion channel off-target effects); assay type: cell-based, canine; details: 20 μM inhibitor, forskolin and ATP
Procedure: MDCK cells on black 96-well Costar microplates with clear plastic bottoms were cultured for 24 h at 37° C. and incubated with test compounds (0 to 25 μM) for 24 h. Cell viability was assayed using AlamarBlue (Pierce, Rockford, Ill.) in which the reagent was added to each well, incubated for 30 min, and absorbance measured at 590 nm. For short-circuit current measurement, snapwell inserts containing MDCK cells were mounted on Ussing chambers. Test compounds (20 μM) were incubated with MDCK cells at both apical and basolateral sides for 10 min at 37° C. prior to addition of 20 μM forskolin and then 100 μM ATP. The apical and basolateral chambers contained identical solutions: 120 mM NaCl, 5 mM KCl, 1 mM MgCl2, 1 mM CaCl2, 5 mM HEPES, 25 mM NaHCO3 and 10 mM glucose. Solutions were bubbled with 5% CO2/95% O2 and maintained at 37° C. […]
Compound toxicity was evaluated by compound incubation for 24 h with MDCK cell cultures followed by Alamar blue assay. […] To assess potential ion channel off-target effects, short-circuit current was measured in MDCK cells in response to cAMP (forskolin) and calcium (ATP) agonists (FIG. 5C, right), which depends on the actions of multiple anion (CFTR, calcium-activated chloride channels) and cation (K^+, Na^+) channels.

[2] = system: rats; assay: Diuretic studies in rats; assay type: in vivo, rat; details: for urine osmolality / urine volume: control, hydrated rats
Procedure: Compound effects on urine output, osmolality and urea concentration were investigated in two conditions. Rats were placed in metabolic cages with water and food available ad libitum and spontaneously voided urine was collected for 3 h. Rats were then injected intravenously with 20 mg/kg UTAinh-E02 or UTAinh-F11 in formulations listed above (or vehicle alone), and returned to the metabolic cages without access to water, but free access to food. Spontaneously voided urine was collected every 3 h for a 6-h period. In some experiments, rats were administered dDAVP (4 μg/kg, IP) just before compound (or vehicle) injection and 3 h later. […] Urine osmolality was measured in water-diluted urine samples by freezing-point osmometry (Micro-osmometer; Precision Systems, Natick, Mass.). Urea concentration was determined by a colorimetric enzymatic assay as described above.
Diuretic efficacy was tested in rats under two different conditions. Inhibitor effects on maximum urinary concentrating ability was studied in rats administered the V2-selective agonist dDAVP at 4 μg/kg every 3 hours. Inhibitors were administered intravenously at 20 mg/kg as done in the pharmacokinetics experiments above. […] Each inhibitor produced a marked increase in volume and reduction in osmolality in urine collected over 0-3 h.
In a separate set of studies UTAinh-E02 was tested in control, hydrated rats.

[3] = Pharmacokinetics in rats; assay type: in vivo; details: rat; for half-life: plasma, read-out: plasma elimination t1/2 (converted)
Procedure: UTAinh-E02 or UTAinh-F11 was administered at 20 mg/kg intravenously by tail vein to rats. UTAinh-E02 was formulated as a 5 mg/mL saline solution containing 20% dimethylacetamide and 40% 2-hydroxypropyl γ-cyclodextrin; UTAinh-F11 was formulated as a 5 mg/mL saline solution containing 20% dimethylacetamide and 0.6 mg/mL NaOH. Blood samples were collected from the tail vein into K3EDTA mini collecting tubes (Greiner, Kremsmunster, Austria) at specified time points. Plasma samples were separated by centrifugation and kept frozen at −20 OC until analysis. Urine samples were also collected. Calibration standards were prepared in urine and plasma from control (non-treated) rats to which known amounts of UTAinh-E02 or UTAinh-F11 were added. The mixture was centrifuged for 20 min at 13,200 rpm and 90 μL of supernatant was taken for LC/MS. The solvent system consisted of a linear gradient from 5% to 95% acetonitrile containing 0.1% formic acid over 16 min (0.2 mL/min flow). Mass spectra was acquired on a mass spectrometer (Waters 2695+micromass ZQ; Waters) using electrospray (+) ionization, mass ranging from 100 to 1500 Da, 40-V cone voltage.
Several vehicles and administration routes were tested in order to give predicted therapeutic inhibitor concentrations in blood and urine. […] Because of the alkaline pH of the administered compounds the vehicle control for UTAinh-F11 was 20% dimethylacetamide and 1.2 mg/mL NaHCO3 in saline to give identical pH. […] Urine levels of UTAinh-F11 were >3 μM over 6 h.

[4] = target: PIM-1 kinase (Homo sapiens, UniProt P11309); details: Ren et al. (2011); cited from earlier work
[5] = Inhibitor permeability across MDCK cell monolayers (LC/MS); assay type: in vitro ADME, canine; details: dog; MDCK monolayers on porous filters, 20 μM; read-out: transepithelial permeability coefficient
Procedure: UT-A1 expressing MDCK cells were grown on 12-mm diameter collagen-coated Transwell inserts (0.4 μm pore size; Costar, Costar, N.Y.) to form tight monolayers (resistance>500 Ωcm^2), as described (see, e.g., Levin et al. (2007) FASEB J. 21, 551-563). Urea flux in the basolateral-to-apical direction was measured in response to a 15 mM urea gradient in which PBS containing forskolin (10 μM), with or without UT-A1 inhibitor and 0.7 mM phloretin, was added to both the apical-facing (0.2 mL) and basal-facing (2 mL) surfaces. After 30 min the basal-facing solution was replaced by PBS containing test compound+15 mM urea. Apical fluid samples (5 μL) were collected at specified times for enzymatic assay of urea (QUANTICHROME Urea Assay Kit; BioAssay Systems, Hayward, Calif.). To measure inhibitor permeability across MDCK cell layers, compounds (20 μM) were added on the basal-facing surface and fluid samples (20 μL) from the apical-facing surface were collected at different time points and analyzed by LC/MS.
To further evaluate the potential site of inhibitor action, the kinetics of UT-A1 inhibition was measured by assay of UT-A1 inhibition at different times after compound addition. […] To assess inhibitor membrane permeability transport of UTAinh-E02 and UTAinh-F11 across MDCK monolayers grown on porous filters by LC/MS was measured. Transport of UTAinh-F11 was much faster than that of UTAinh-E02 (FIG. 3C, right lower panel), with computed transepithelial permeability coefficients of […] and 1.1×10^−5 cm/s, respectively. From surface-to-volume considerations, the equilibration times were computed of UTAinh-E02 and UTAinh-F11 to be 250 and 14 s, respectively, in MDCK cells, which are consistent with intracellular sites of action of both inhibitors.

[6] = intraperitoneal, subcutaneous or oral, up to 100 mg/kg

PIM-1 kinase, sequence (P11309 whole entry): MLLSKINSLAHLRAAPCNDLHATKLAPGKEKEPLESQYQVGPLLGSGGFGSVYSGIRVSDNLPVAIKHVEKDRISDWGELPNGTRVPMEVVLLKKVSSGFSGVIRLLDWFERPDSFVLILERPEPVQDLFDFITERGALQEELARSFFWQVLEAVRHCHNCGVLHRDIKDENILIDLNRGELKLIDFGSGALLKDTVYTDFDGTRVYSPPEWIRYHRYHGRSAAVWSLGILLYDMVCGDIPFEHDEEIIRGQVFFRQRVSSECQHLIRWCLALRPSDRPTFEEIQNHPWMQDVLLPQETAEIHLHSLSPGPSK

SMILES	short-circuit current [1]	urine osmolality ([2]; 0-3 h)	urine volume ([2]; 0-3 h)	urine osmolality ([2]; 3-6 h collection)	urine volume ([2]; 3-6 h collection)	ratio of urea vs. non-urea solutes in urine ([2]; dDAVP rats, after inhibitor treatment)	half-life ([3]; intravenous 20 mg/kg) [h]	plasma concentration [3, 6] [µM]	urine concentration [3, 6] [µM]	plasma level initially ([3]; intravenous 20 mg/kg)	urine level initially ([3]; intravenous 20 mg/kg) [µM]	PIM-1 kinase inhibitor potency [4]	urine levels over 6 h ([3]; intravenous 20 mg/kg) [µM]	Papp B→A at 20 μM [5] [nm/s]
CC(=O)Nc1ccc(-c2csc(-c3c[nH]c4ccccc34)n2)cc1 [UTA1inh-E02, N-(4-(2-(1H-indol-3-yl)thiazol-4-yl)phenyl)acetamide]	Neither inhibitor at 20 μM altered short-circuit current	reduced	significantly increased	returned to near baseline	returned to near baseline	increased	~4.5	< 1	< 1	~6 µM	~3	micromolar potency	–	–
COc1ccc(C)cc1S(=O)(=O)Nc1ccc(Cl)c(N2CCCS2(=O)=O)c1 [UTA1inh-F11, N-[4-Chloro-3-(1,1-dioxido-1,2-thiazolidin-2-yl)phenyl]-2-methoxy-5-methylbenzene-sulfonamide]	Neither inhibitor at 20 μM altered short-circuit current	–	–	–	–	–	~1	–	–	higher initial plasma levels than UTAinh-E02	–	–	> 3	110

Reference: US11123340B2, “Small-molecule UT-A-selective urea transport inhibitors” (The Regents of the University of California, priority 2014, dated 2021)
